The results in this text go back to ChEMBL document CHEMBL1147166, “Structure-activity relationships of methoctramine-related polyamines as muscarinic antagonist: effect of replacing the inner polymethylene chain with cyclic moieties” (Bioorg Med Chem, 2007).

Experiment [1] concerns Mus musculus. Kind of experiment: Antinociceptive activity in mouse assessed as licking latency at 0.03 ug, icv after 60 mins by hot plate method. In kind it is functional.
For experiment [2], the system named is Mus musculus. Description: Antinociceptive activity in mouse assessed as licking latency at 0.01 ug, icv after 15 mins by hot plate method. In kind it is functional. (Hot-plate and tail-flick tests time the reaction to a heat stimulus.)
In experiment [3] the test system is Mus musculus. Description: Antinociceptive activity in mouse assessed as licking latency at 0.1 ug, icv after 60 mins by hot plate method. In kind it is functional.
Experiment [4] has as its system Mus musculus. Description: Antinociceptive activity in mouse assessed as licking latency at 0.01 ug, icv after 60 mins by hot plate method. Type of experiment: functional.
The test system of experiment [5] is Mus musculus. Description: Antinociceptive activity in mouse assessed as licking latency at 0.1 ug, icv after 30 mins by hot plate method. In kind it is functional.
Experiment [6] has as its system Mus musculus. Kind of experiment: Antinociceptive activity in mouse assessed as licking latency at 0.3 ug, icv after 60 mins by hot plate method. In kind it is functional.
The target in experiment [7] is T1, Muscarinic acetylcholine receptor M4 (Homo sapiens) (UniProt P08173).
T1 sequence (whole entry): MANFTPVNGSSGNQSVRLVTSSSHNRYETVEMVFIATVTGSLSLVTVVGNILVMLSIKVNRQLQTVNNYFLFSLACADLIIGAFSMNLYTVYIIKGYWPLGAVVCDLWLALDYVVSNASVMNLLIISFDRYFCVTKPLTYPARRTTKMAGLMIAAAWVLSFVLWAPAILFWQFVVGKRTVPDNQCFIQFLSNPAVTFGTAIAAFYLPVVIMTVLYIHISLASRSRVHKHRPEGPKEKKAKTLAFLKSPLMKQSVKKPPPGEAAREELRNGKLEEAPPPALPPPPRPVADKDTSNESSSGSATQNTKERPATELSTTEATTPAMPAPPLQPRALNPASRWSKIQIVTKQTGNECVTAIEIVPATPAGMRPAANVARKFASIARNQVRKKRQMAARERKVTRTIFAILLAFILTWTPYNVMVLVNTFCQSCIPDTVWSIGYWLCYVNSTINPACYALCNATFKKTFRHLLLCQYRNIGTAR
Description: Antagonist potency at muscarinic receptor M4 in rabbit vas deferens. In kind it is functional, tissue-based. Conditions: Oryctolagus cuniculus, target entry is the homologue from another species.

Experiment [8] relates to Mus musculus. Kind of experiment: Antinociceptive activity in mouse assessed as licking latency at 0.03 ug, icv after 45 mins by hot plate method. In kind it is functional.
The subject of experiment [9] is Mus musculus. Kind of experiment: Antinociceptive activity in mouse assessed as licking latency at 1.0 ug, icv after 30 mins by hot plate method. Type of experiment: functional.
Experiment [10] concerns the target T2, Muscarinic acetylcholine receptor M2 (Homo sapiens, UniProt P08172).
T2 sequence (P08172 whole entry): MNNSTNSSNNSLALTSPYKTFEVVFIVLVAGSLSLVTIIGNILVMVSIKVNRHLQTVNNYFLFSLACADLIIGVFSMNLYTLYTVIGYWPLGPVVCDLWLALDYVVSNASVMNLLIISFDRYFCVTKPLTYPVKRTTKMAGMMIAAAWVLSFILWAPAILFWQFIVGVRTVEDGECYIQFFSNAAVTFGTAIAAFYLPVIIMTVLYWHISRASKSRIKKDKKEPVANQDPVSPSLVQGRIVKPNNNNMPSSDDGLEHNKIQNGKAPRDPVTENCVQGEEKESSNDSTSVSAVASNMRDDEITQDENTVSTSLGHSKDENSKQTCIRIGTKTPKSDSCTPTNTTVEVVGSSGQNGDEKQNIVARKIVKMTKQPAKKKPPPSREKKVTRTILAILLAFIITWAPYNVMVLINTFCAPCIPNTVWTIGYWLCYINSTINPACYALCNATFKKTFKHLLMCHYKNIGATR
Description: Displacement of [3H] N-methyl-scopolamine chloride from human muscarinic receptor M2 expressed in CHO cells. Type of experiment: cell-based. (In general: In a radioligand displacement assay an active substance lowers the binding of a labelled ligand.)

The target in experiment [11] is T3, Muscarinic acetylcholine receptor M4 (Homo sapiens, UniProt P08173).
T3 sequence (P08173 whole entry): T1 sequence (whole entry)
Description: Displacement of [3H] N-methyl-scopolamine chloride from human muscarinic receptor M4 expressed in CHO cells. In kind it is cell-based.

The structures appear in SMILES notation.

As usually defined, the pKb is the negative decadic logarithm of the Kb, by convention in mol/L. Usually Ki stands for a dissociation constant, usually derived from enzyme kinetics or from competition with a known ligand. A higher Ki goes with lower affinity. For `COc1ccccc1CNCCCCCCN1CCC(CCC2CCN(CCCCCCNCc3ccccc3OC)CC2)CC1`, the Time stood at 16.1 s in the experiment on Mus musculus [1]; 15.9 s with Mus musculus [2]; 18.6 s with Mus musculus [3]; 14.2 s with Mus musculus [4]; 24.5 s in the experiment with Mus musculus [5]; 15.7 s with Mus musculus [6]. Also, the Time in the experiment on Mus musculus [8] stood at 18.3 s; in the experiment on Mus musculus [9], 21.3 s. This compound also returned a negative logarithm of the Kb (pKb) in [7] of 5.56. Besides, the values for the Ki in [10] and in experiment [11] were 6.03 nM and 40.7 nM, respectively.
